Values of other authors in patent US9861579B2, “Foamable formulation” (Nuvo Pharmaceuticals Inc., priority 2010, dated 2018).

## CC(C)Cc1ccc(C(C)C(=O)O)cc1 (racemic) [Ibuprofen, 2-(4-isobutylphenyl) propanoic acid]
  log P: 3.6
Practically insoluble in water
  solubility in water: < 100 µg/mL
